# Assays:
# SKOV3 cells = test: Oxygen consumption rate (OCR) measurement; format: cell-based
# Experimental: FIG. 4 Dynamic flux analysis with parallel tracers to quantify oxidative MTHFD2 flux. a, Oxidative MTHFD2 flux and percentage decrease in OCRfollowing MTHFD2 inhibition in SKOV3 cells treated with rotenone (0, 31, 62, 125, 250, 500 or 1,000 nM) and MTHFD2 inhibitor (0 or 60 μM). Oxidative MTHFD2 flux is proportional to [2H1]-serine/[2H1]-NADH enrichment in cells cultured with 4-[2H]-glucose for 8 h. Percentage decrease in OCR is estimated in SKOV3 cells treated with 60 μM MTHFD2i compared with 0 μM MTHFD2i. Oxidative flux data are combined from two independent experiments (n=4), with mean±s.d. estimated using error propagation. OCR data are representative of two independent experiments and presented as mean±s.d. estimated using error propagation (n=5). b, Reductive MTHFD2 flux and basal OCR in SKOV3 cells treated with rotenone (0, 31, 62, 125, 250 or 1,000 nM) and MTHFD2 inhibitor (0 or 60 μM). Reductive MTHFD2 flux is proportional to [2H1]-NADH in cells cultured with 2,3,3-[2H]-serine for 8 h. OCR data are representative of two independent experiments and presented as mean±s.e.m. (n=5). c, Schematic of combination tracer experiment with 4-[2H]-glucose and [2H]-formate to track oxidative MTHFD2 flux. […] (n=6) and analysed using two-tailed Welch's t-test. e, Ratio of [2H2]-serine/[2H]-NADH enrichment in SKOV3 and OVCAR8 cells at 2 h after combined tracer introduction of 4-[2H]-glucose and [2H]-formate, representing the normalized contribution of [2H]-NADH to [2H2]-serine via oxidative MTHFD2 flux. Data combined from two independent experiments (n=6), with mean±s.d. estimated using error propagation and analysed by two-tailed Welch's t-test. f, [2H2]-serine enrichment in SKOV3 cells expressing shScramble or shUQCR11 at 2 h after combined tracer introduction of 4-[2H]-glucose and [2H]-formate. […] (n=5) and analysed using one-tailed non-parametric Mann-Whitney test.
# OCR measurement. […] Live OCR was measured for up to 16 h after attaching the lid.
# Mito stress test with the Seahorse analyser. Mitochondrial OCR was measured using a Seahorse XFe96 analyser (Agilent Technologies). […]
# [1] = tested on: SKOV3 cells expressing shScramble or shUQCR11; test: Viability of isogenic SKOV3 lines expressing shScramble or shUQCR11 treated with MTHFD2 inhibitor; format: cell-based; settings: SKOV3 cells with UQCR11 knocked down vs shScramble
# Source text: FIG. 2 Multi-objective metabolic flux analysis identifies MTHFD2 as a collateral lethal target in UQCR11-null ovarian cancers with in vitro, clinical and pan-cancer implications. a, Workflow elucidating multi-objective flux analysis algorithm comparing flux distributions of cancers with and without deletions for identification of collateral lethal pathways. b, Multi-objective metabolic Pareto frontier and metabolic fluxes of MTHFD1, MTHFD2, RNA and DNA syntheses in UQCR11-null and -intact models. Radar plots represent Pareto-optimal flux distributions from maximal biomass to maximal ATP maintenance (counterclockwise). c, mRNA expression of UQCR11 and MTHFD2 in parental ovarian cancer cell lines. Data presented as mean±s.d. (n=6), analysed using two-tailed Student's t-test. d, Protein expression of MTHFD2 and UQCR11. Representative immunoblots with β-actin as loading control. e, Cell viability after dox-induced shMTHFD2 knockdown. […] (n=3), analysed using two-way analysis of variance (ANOVA) with Dunn's correction. f, Viability of parental ovarian cancer lines treated with MTHFD2 inhibitor. […] Data analysed pairwise by log-rank test. k, Overall survival of patients with UCEC and low UQCR11 (bottom quartile) expression and high (top quartile) expression of MTHFD2 compared with patients with low UQCR11 and MTHFD2 (bottom quartile) expression. Data analysed by log-rank test. […]
smiles,measurement,setting,value
Cc1c(N2CCN(C)[C@@H](C)C2)ccc2c3c(c(=O)oc12)CN(C(=O)c1ccc(NS(C)(=O)=O)c(OC(F)(F)F)c1)CC3 [DS18561882],OCR,"SKOV3 cells; SKOV3, low range of rotenone doses plus MTHFD2 inhibitor 60 μM",synergistic decrease
same,OCR,"SKOV3 cells; SKOV3, rotenone doses >62 nM plus MTHFD2 inhibitor",did not detrimentally affect OCR
same,GISO concentrations,[1],significantly reduced

# Source: patent US20260018245A1, “SYSTEMS AND METHODS FOR IDENTIFYING AND TARGETING COLLATERAL LETHAL GENES” (The Regents of the University of Michigan, priority 2022, published 2026)
